From patent US20110092476A1, “Bicycloheteroaryl compounds as P2X7 modulators and uses thereof” (Renovis, Inc., priority 2006, published 2011)
Converted amounts (≈) assume the structure as drawn. Read-outs that look alike come from different tables or passages of the source.

Legend:
[1] = target: T1, P2X7 receptor (Homo sapiens, UniProt Q99572); experiment: IL-1β release assay in differentiated THP-1 cells stimulated with BzATP (Example 9); type: cell-based; conditions: BzATP 250 uM; for inhibition at 0.3 µM: differentiated THP-1 cells, read-out: IL-1β % Inhib. @ 0.3 or 0.1 uM; for IC50: THP-1 cells, IL-1β by ELISA
T1 construct: host or cells: THP-1 cells differentiated with LPS and IFN-γ
T1 sequence (Q99572 1-595): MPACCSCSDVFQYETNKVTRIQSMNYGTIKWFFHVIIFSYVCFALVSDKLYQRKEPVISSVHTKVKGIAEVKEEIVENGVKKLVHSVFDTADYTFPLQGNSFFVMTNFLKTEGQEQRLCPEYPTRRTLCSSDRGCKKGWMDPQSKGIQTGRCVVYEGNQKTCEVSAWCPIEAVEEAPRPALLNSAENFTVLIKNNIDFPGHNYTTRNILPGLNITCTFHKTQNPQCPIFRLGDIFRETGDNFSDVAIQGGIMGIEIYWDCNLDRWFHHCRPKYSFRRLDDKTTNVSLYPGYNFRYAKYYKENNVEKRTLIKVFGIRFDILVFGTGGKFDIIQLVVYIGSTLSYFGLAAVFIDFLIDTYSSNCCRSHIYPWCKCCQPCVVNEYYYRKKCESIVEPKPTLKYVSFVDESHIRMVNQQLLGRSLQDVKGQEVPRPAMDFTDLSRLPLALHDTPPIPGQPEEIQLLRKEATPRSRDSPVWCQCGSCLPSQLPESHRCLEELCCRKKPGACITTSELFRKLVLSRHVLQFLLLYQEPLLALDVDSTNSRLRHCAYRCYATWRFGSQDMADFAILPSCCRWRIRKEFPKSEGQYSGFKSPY
Outline: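 IC50 derived by four-parameter logistic fit of percent inhibition of IL-1β release (ELISA, background-adjusted). Release triggered by 45 min BzATP at 250 uM final after 30 min compound pretreatment of THP-1 cells previously differentiated 16 h (LPS, IFN-γ, 100 ng/mL each) and re-primed 2 h with LPS.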

[2] = Half-life in human liver microsomes (HLM); conditions: pH 7.4
Procedure: Test compounds (1 μM) are incubated with 3.3 mM MgCl2 and 0.78 mg/mL HLM (HL101) in 100 mM potassium phosphate buffer (pH 7.4) at 37° C. on the 96-deep well plate. The reaction mixture is split into two groups, a non-P450 and a P450 group. NADPH is only added to the reaction mixture of the P450 group. An aliquot of samples of P450 group is collected at 0, 10, 30, and 60 min time point, where 0 min time point indicated the time when NADPH is added into the reaction mixture of P450 group. […] Collected aliquots are extracted with acetonitrile solution containing an internal standard. […] The compound concentration in supernatant is measured by LC/MS/MS system.
The half-life value is obtained by plotting the natural logarithm of the peak area ratio of compounds/internal standard versus time. The slope of the line of best fit through the points yields the rate of metabolism (k). This is converted to a half-life value using following equations:

[3] = Pharmacokinetic evaluation following intravenous and oral administration in rats (oral bioavailability); type: in vivo, rat; conditions: male Sprague-Dawley rats, PO 1 to 5 mg/kg vs IV 1 mg/kg, AUCinf dose-normalized
Procedure: Male Sprague-Dawley rats are acclimatized for at least 24 hours prior to experiment initiation. During acclimation period, all animals receive food and water ad libitum. However, food but not water is removed from the animal's cages at least 12 hours before initiation of the experiment. During the first 3 hours of experimentation, the animals receive only water ad libitum. At least three animals each are tested for intravenous and oral dosage. For intravenous formulation, compounds were dissolved (0.25 to 1 mg/mL) in a mixture of 3% dimethyl sulfoxide, 40% PEG 400 and the rest percentage of 40% Captisol in water (w/v). The animals are weighed before dosing. The determined body weight is used to calculate the dose volume for each animal.
Dose volume (mL/kg)=1 mg/kg/formulation concentration (mg/mL)
In instances where the formulation concentrations were less than 0.5 mg/mL, the dosing volume is about 2 mL/kg.
PO rats are typically dosed through oral gavage following the same dose volume formula as IV to achieve a dose level of 1 to 5 mg/kg. […] About 250 uL of blood is obtained at each time point from the animal. Equal volumes of 0.9% normal saline are replaced to prevent dehydration. The whole blood samples are maintained on ice until centrifugation. Blood samples are then centrifuged at 14,000 rpm for 10 minutes at 4° C. and the upper plasma layer transferred into a clean vial and stored at −80° C. The resulting plasma samples are then analyzed by liquid chromatography-tandem mass spectrometry. Following the measurement of plasma samples and dosing solutions, plasma concentration-time curve is plotted. Plasma exposure is calculated as the area under the concentration-time curve extrapolated to time infinite (AUinf). The AUCinf is averaged and the oral bioavailability (% F) for individual animal is calculated as:
AUCinf (PO)/AUCinf (IV), normalized to their respective dose levels. The % F is reported as the mean % F of all animals dosed orally with the compound of the invention at the specified level (see Table 4 below).
For the purpose of Table 4, oral bioavailability of each compound is expressed as follows: […]

[4] = Determination of aqueous (kinetic) solubility; type: physicochemical; conditions: aqueous buffer, kinetic from dmso stock, buffer pH 7.4
Procedure: The mixture was vortexed for 1 hour and equilibrated overnight at room temperature. The mixture was filtered through a saturated filter and the filtrate was analyzed by LC/MS/MS.
For the purpose of Table 5, solubility of each compound is expressed as follows: […]

SMILES | inhibition at 0.3 µM ([1]; 0.3 μM compound (symbols +)) [%] | half-life at 1 μM [2] [h] | Oral Bioavailability F (%) [3] | inhibition at 0.3 µM ([1]; 0.3 μM compound, "+" symbols) [%] | solubility [4] [µM] | IC50 [1] [nM] | inhibition at 0.3 µM ([1]; "+" symbols = compound at 0.3 μM) [%]
O=C(Cc1ccc(Cl)c(Cl)c1)Nc1cccc2c(=O)n(CCO)ccc12 [Compound 8] | > 76 | 1.41 | + (0-25% F) | – | – | – | –
C[C@H](CO)n1ccc2c(NC(=O)Cc3ccc(Cl)c(F)c3)c(Cl)ccc2c1=O [Compound 382] | – | 1.34 | +++ (51-75% F) | > 76 | – | – | –
O=C(CCc1cc(C(F)(F)F)ccc1C(F)(F)F)Nc1cccc2c(=O)n(CCO)ccc12 [Compound 62] | > 76 | 0.37 | + (0-25% F) | – | < 25 | – | –
O=C(Cc1ccc(Cl)cc1)Nc1cccc2c(=O)n(CCO)ccc12 [Compound 4] | 26 to 50 | 1.97 | ++++ (>75% F) | – | – | – | –
C[C@H](CO)n1ccc2c(NC(=O)Cc3ccc(C(F)(F)F)cc3)c(Cl)ccc2c1=O [Compound 364] | – | 3.15 | ++++ (>75% F) | > 76 | – | – | –
O=C(Cc1ccc(Cl)c(C(F)(F)F)c1)Nc1cccc2c(=O)n(C[C@@H]3CCCN3)ccc12 [Compound 232, 2-(4-Chloro-3-trifluoromethyl-phenyl)-N-(1-oxo-2-(S)-1-pyrrolidin-2-ylmethyl-1,2-dihydro-isoquinolin-5-yl)-acetamide] | – | 7.37 | – | > 76 | – | – | –
CC(C)(CO)n1ccc2c(NC(=O)Cc3ccc(Cl)c(C(F)(F)F)c3)cccc2c1=O [Compound 369, 2-(4-Chloro-3-trifluoromethyl-phenyl)-N-[2-(2-hydroxy-1,1-dimethyl-ethyl)-1-oxo-1,2-dihydro-isoquinolin-5-yl]-acetamide] | – | 0.55 | + (0-25% F) | > 76 | – | – | –
O=C(Cc1ccc(Cl)c(Cl)c1)Nc1cccc2c(=O)n(C(CO)CO)ccc12 [Compound 80] | > 76 | – | – | – | > 75 | – | –
O=C(Cc1ccc(C(F)(F)F)cc1)Nc1cccc2c(=O)n(CCO)ccc12 [Compound 7] | 26 to 50 | – | – | – | < 25 | – | –
C[C@H](C(N)=O)n1ccc2c(NC(=O)Cc3ccc(F)c(Cl)c3)cccc2c1=O [Compound 301] | – | – | – | > 76 | 26 to 50 (≈ 10.4 to 20.1 µg/mL) | – | –
C[C@H](C(N)=O)n1ccc2c(NC(=O)Cc3ccc(Cl)c(C(F)(F)F)c3)cccc2c1=O [Compound 238, (R)-2-{5-[2-(4-Chloro-3-trifluoromethyl-phenyl)-acetylamino]-1-oxo-1H-isoquinolin-2-yl}-propionamide] | – | 1.59 | + (0-25% F) | > 76 | – | – | –
C[C@H](C(N)=O)n1ccc2c(NC(=O)Cc3ccc(Cl)cc3F)cccc2c1=O [Compound 290] | – | 1.64 | + (0-25% F) | > 76 | – | – | –
Cc1ccc2c(=O)n([C@H](C)CO)ccc2c1NC(=O)Cc1ccc(Cl)c(F)c1 [Compound 398] | – | – | – | – | > 75 | 5.38 | > 76
C[C@H](CO)n1ccc2c(NC(=O)Cc3ccc(Cl)c(C(F)(F)F)c3)cccc2c1=O [Compound 362] | – | 0.97 | ++ (26-50% F) | > 76 | – | – | –
CC(C)[C@H](C(N)=O)n1ccc2c(NC(=O)[C@H](C)c3ccc(Cl)cc3)cccc2c1=O [Compound 284, (R)-2-{5-[(R)-2-(4-Chloro-phenyl)-propionylamino]-1-oxo-1H-isoquinolin-2-yl}-3-methyl-butyramide] | – | – | – | > 76 | > 75 | – | –
C[C@H](C(N)=O)n1ccc2c(NC(=O)Cc3ccc(F)c(Br)c3)cccc2c1=O [Compound 307] | – | – | – | > 76 | < 25 | – | –
C[C@H](CO)n1ccc2c(NC(=O)Cc3ccc(C(F)(F)F)cc3C(F)(F)F)cccc2c1=O [Compound 361] | – | – | – | > 76 | > 75 | – | –
C[C@H](C(N)=O)n1ccc2c(NC(=O)Cc3ccc(C(F)(F)F)c(F)c3)cccc2c1=O [Compound 306] | – | – | – | > 76 | < 25 | – | –
C[C@H](CO)n1ccc2c(NC(=O)Cc3ccc(Cl)c(Cl)c3)cccc2c1=O [Compound 333, 2-(3,4-Dichloro-phenyl)-N-[2-((R)-2-hydroxy-1-methyl-ethyl)-1-oxo-1,2-dihydro-isoquinolin-5-yl]-acetamide] | – | – | – | > 76 | > 75 | – | –
C[C@@H](C(N)=O)n1ccc2c(NC(=O)Cc3ccc(Cl)c(Cl)c3)cccc2c1=O [Compound 236, (S)-2-{5-[2-(3,4-Dichloro-phenyl)-acetylamino]-1-oxo-1H-isoquinolin-2-yl}-propionamide] | – | 0.97 | + (0-25% F) | > 76 | – | – | –
Cc1ccc2c(=O)n([C@H](C)CO)ccc2c1NC(=O)Cc1ccc(C(F)(F)F)cc1 [Compound 397] | – | – | – | > 76 | 51 to 75 (≈ 21.3 to 31.4 µg/mL) | 65.1 | –
C[C@H](CO)n1ccc2c(NC(=O)[C@H](C)c3ccc(Cl)c(Cl)c3)cccc2c1=O [Compound 320] | – | – | – | > 76 | 51 to 75 (≈ 21.4 to 31.4 µg/mL) | – | –
C[C@H](C(N)=O)n1ccc2c(NC(=O)Cc3cccc(C(F)(F)F)c3F)c(Cl)ccc2c1=O [Compound 342] | – | 1.16 | + (0-25% F) | > 76 | – | – | –
NC(=O)[C@H](CO)n1ccc2c(NC(=O)Cc3ccc(Cl)c(C(F)(F)F)c3)cccc2c1=O [Compound 250, (S)-2-{5-[2-(4-Chloro-3-trifluoromethyl-phenyl)-acetylamino]-1-oxo-1H-isoquinolin-2-yl}-3-hydroxy-propionamide] | – | 0.9 | – | > 76 | > 75 | – | –
CC(C)[C@H](C(N)=O)n1ccc2c(NC(=O)[C@@H](C)c3ccc(Cl)cc3)cccc2c1=O [Compound 283] | – | – | – | > 76 | > 75 | – | –
CC(C(=O)Nc1cccc2c(=O)n([C@H](C)C(N)=O)ccc12)c1ccc(Cl)cc1 (stereo partly drawn) [Compound 247] | – | 2.11 | ++ (26-50% F) | > 76 | – | – | –
C[C@H](C(N)=O)n1ccc2c(NC(=O)Cc3ccc(Cl)c(F)c3)cccc2c1=O [Compound 300] | – | – | – | > 76 | < 25 | – | –
C[C@H](CO)n1ccc2c(NC(=O)Cc3ccc(C(F)(F)F)cc3)cccc2c1=O [Compound 319] | – | 1.22 | +++ (51-75% F) | > 76 | – | – | –
C[C@@H](C(N)=O)n1ccc2c(NC(=O)Cc3ccc(Cl)cc3C(F)(F)F)cccc2c1=O [Compound 237, (S)-2-{5-[2-(4-Chloro-2-trifluoromethyl-phenyl)-acetylamino]-1-oxo-1H-isoquinolin-2-yl}-propionamide] | – | – | – | > 76 | 26 to 50 (≈ 11.7 to 22.6 µg/mL) | – | –
C[C@H](C(N)=O)n1ccc2c(NC(=O)Cc3cccc(C(F)(F)F)c3F)cccc2c1=O [Compound 285] | – | 1.24 | ++ (26-50% F) | > 76 | – | – | –
